This note sets out measurements from paper PMC7056826, “Crystal Structure of the Chloroplastic Glutamine Phosphoribosylpyrophosphate Amidotransferase GPRAT2 From Arabidopsis thaliana” (Frontiers in Plant Science, 2020).

The target in series [1] is T1, AtGPRAT2 (Arabidopsis thaliana, UniProt Q9STG9).
T1 construct: gene ASE2; residues 75-561 without predicted chloroplast transit peptide, C-terminal His tag (pET22b), E. coli BL21; propeptide autocatalytically removed, first visible residue Cys87 (87-546 visible); 4Fe-4S cluster; homo-tetramer in crystal
T1 sequence (Q9STG9 87-561): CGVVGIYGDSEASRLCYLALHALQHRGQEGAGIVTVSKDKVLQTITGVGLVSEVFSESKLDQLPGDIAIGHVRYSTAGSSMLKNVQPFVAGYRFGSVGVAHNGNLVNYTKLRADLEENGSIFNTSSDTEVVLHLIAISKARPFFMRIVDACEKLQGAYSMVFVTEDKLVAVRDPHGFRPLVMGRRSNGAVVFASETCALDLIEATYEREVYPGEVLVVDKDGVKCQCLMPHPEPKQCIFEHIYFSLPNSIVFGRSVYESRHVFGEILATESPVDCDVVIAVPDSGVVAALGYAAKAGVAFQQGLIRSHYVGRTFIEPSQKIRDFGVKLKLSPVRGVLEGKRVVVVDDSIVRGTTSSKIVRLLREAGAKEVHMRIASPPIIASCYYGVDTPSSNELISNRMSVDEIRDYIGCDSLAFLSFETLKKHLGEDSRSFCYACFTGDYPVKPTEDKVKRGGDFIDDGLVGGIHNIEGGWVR
As to the kind of experiment: coupled glutamate dehydrogenase assay, NADH at […] nm, mixed inhibition model. The format is biochemical.

In series [2] the target is T2, AtGPRAT2 (Arabidopsis thaliana, UniProt Q9STG9, R264K).
T2 construct: gene ASE2; residues 75-561 without predicted chloroplast transit peptide, C-terminal His tag (pET22b), E. coli BL21; propeptide autocatalytically removed, first visible residue Cys87 (87-546 visible); 4Fe-4S cluster; homo-tetramer in crystal
T2 sequence (Q9STG9 87-561 R264K): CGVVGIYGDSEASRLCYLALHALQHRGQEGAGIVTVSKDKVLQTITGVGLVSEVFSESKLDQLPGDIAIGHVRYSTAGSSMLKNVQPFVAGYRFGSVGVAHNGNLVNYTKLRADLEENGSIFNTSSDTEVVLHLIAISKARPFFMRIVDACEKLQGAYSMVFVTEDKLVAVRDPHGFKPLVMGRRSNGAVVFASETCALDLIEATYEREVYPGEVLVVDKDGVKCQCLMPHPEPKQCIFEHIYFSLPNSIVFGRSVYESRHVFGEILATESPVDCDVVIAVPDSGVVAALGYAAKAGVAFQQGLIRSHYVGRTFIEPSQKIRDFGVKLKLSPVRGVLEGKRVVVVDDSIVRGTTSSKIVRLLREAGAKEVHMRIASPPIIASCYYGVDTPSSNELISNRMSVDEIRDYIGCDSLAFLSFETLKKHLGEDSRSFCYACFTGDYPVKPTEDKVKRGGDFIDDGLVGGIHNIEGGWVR
In words: isothermal titration calorimetry, single site model. The series is classed as binding. Particulars: 20 mM HEPES pH 7.5, 200 mM NaCl, 25 °C; stated gain. (In ITC the heat of successive injections is recorded.)

In series [3] the target is T1, AtGPRAT2. Described as above. The format is binding. An excerpt:
isothermal titration calorimetry, single site model on AtGPRAT2 | isothermal titration calorimetry (ITC) assay with wildtype, R264K and Y329A mutants of AtGPRAT2

In series [4] the target is T3, AtGPRAT2 (Arabidopsis thaliana, UniProt Q9STG9, Y329A).
T3 construct: gene ASE2; residues 75-561 without predicted chloroplast transit peptide, C-terminal His tag (pET22b), E. coli BL21; propeptide autocatalytically removed, first visible residue Cys87 (87-546 visible); 4Fe-4S cluster; homo-tetramer in crystal
T3 sequence (Q9STG9 87-561 Y329A): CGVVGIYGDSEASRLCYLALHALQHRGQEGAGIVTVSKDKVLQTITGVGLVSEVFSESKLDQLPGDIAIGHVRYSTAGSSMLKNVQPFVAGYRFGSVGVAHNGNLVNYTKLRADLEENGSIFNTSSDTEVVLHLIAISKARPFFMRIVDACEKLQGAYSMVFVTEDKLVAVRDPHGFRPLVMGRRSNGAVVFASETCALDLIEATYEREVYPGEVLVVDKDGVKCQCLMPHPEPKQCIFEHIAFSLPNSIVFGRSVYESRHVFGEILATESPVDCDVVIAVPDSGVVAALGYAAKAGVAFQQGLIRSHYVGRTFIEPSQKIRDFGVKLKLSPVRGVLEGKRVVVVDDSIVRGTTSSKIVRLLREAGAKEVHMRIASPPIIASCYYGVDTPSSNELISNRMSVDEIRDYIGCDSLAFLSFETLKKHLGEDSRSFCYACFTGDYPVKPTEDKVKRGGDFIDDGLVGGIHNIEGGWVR
The description is as above. The format is binding.

Substrate in the series “purified protein”: O=P(O)(O)OC[C@H]1O[C@H](OP(=O)(O)OP(=O)(O)O)[C@H](O)[C@@H]1O
In words: purified protein. The series is classed as biochemical, Arabidopsis thaliana. The conditions noted are these: 10 mM Gln, 37.5 mM NAD+, 110 mM potassium phosphate pH 8.0, no inhibitor.

Series [5] deals with the molecule itself. As to the kind of experiment: crystal structure; sitting-drop vapor diffusion at 291 K; 0.1 M sodium citrate tribasic pH 5.6, 1.5 M ammonium phosphate monobasic, 0.1 M citric acid pH 3.4; space group P3121, two molecules in the asymmetric unit; tetramer assigned with the PISA server.

Consider `CC(C)n1nc(CC(=O)O)nc1-c1ccc(Cl)cc1` [DAS734, [5-(4-chlorophenyl)-1-isopropyl-1H-[1,2,4]triazol-3-yl]-acetic acid], for which affinity at AtGPRAT2 [1] was put at a Ki of 5290 nM. Besides, on AtGPRAT2 [2], the binding abolished result is “the R264K mutation abolished the binding of DAS734 to AtGPRAT2”. Moreover, the figures for the dissociation constant (Kd) at AtGPRAT2 [3] and on AtGPRAT2 [4] were 165 ± 15.8 nM and 1750 ± 38.4 nM, respectively.

B1: Arabidopsis thaliana chloroplastic glutamine phosphoribosylpyrophosphate amidotransferase 2, AtGPRAT2^75-561 (enzyme, UniProt Q9STG9 75-561, looked up)
chain: CGVVGIYGDSEASRLCYLALHALQHRGQEGAGIVTVSKDKVLQTITGVGLVSEVFSESKLDQLPGDIAIGHVRYSTAGSSMLKNVQPFVAGYRFGSVGVAHNGNLVNYTKLRADLEENGSIFNTSSDTEVVLHLIAISKARPFFMRIVDACEKLQGAYSMVFVTEDKLVAVRDPHGFRPLVMGRRSNGAVVFASETCALDLIEATYEREVYPGEVLVVDKDGVKCQCLMPHPEPKQCIFEHIYFSLPNSIVFGRSVYESRHVFGEILATESPVDCDVVIAVPDSGVVAALGYAAKAGVAFQQGLIRSHYVGRTFIEPSQKIRDFGVKLKLSPVRGVLEGKRVVVVDDSIVRGTTSSKIVRLLREAGAKEVHMRIASPPIIASCYYGVDTPSSNELISNRMSVDEIRDYIGCDSLAFLSFETLKKHLGEDSRSFCYACFTGDYPVKPTEDKVKRGGDFIDDGLVGGIHNIEGGWVR
notes: AtGPRAT2 (At4g34740), Arabidopsis thaliana, residues 75-561, without the predicted chloroplast transit peptide; Each protomer carries a 4Fe-4S cofactor; also called GPRATase
With B1, the Michaelis-Menten constant (Km) (in general, the concentration of substrate that gives half-maximal velocity) in the series “purified protein” was 350 µM. Also, in series [5], the stoichiometry N – broadly, a count of units in the complex or per binding partner – amounted to 4.
